Laboratory results reported in patent US20080207708A1, “Oxazole and Thiazole Compounds and Their Use in the Treatment of Pge2 Mediated Disorders” (GLAXO GROUP LIMITED, priority 2005, published 2008).
Counter-ions that a name gives are not always drawn.

Tests used:
EP1 receptors [1] = biological target: T1, EP1 receptors (Homo sapiens, UniProt P34995); assay: Binding assay for the human prostanoid EP1 receptor (competition with [3H]-PGE2); set-up: expressed in transfected cells; host or cells: CHO-K1 cells, membrane fraction; settings: [3H]-PGE2 competition; averages of a number of experiments; read-out: pIC50 value, binding assay for the human prostanoid EP1 receptor (converted)
T1 sequence (P34995 1-402): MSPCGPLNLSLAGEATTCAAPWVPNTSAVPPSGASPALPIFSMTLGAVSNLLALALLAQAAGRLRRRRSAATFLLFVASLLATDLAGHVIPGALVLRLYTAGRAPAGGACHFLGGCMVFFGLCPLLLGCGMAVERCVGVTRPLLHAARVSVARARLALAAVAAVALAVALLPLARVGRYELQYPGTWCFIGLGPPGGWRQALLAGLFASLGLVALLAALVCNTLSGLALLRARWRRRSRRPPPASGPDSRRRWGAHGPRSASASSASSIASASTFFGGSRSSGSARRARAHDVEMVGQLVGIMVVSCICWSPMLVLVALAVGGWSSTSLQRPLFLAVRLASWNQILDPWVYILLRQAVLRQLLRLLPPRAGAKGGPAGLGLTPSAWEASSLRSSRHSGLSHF
How it was run: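 Membranes from CHO-K1 cells stably expressing human EP1 incubated with compounds and [3H]-PGE2 (3 nM final) for 30 min at 30° C in MES buffer with EDTA and MgCl2, pH 6. Bound radioactivity measured after filtration; IC50 from nonlinear fit of specific binding inhibition.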

EP1 receptors [2] = biological target: T1, EP1 receptors; assay: human EP1 calcium mobilisation assay (CHO-K1 cells, FLIPR, PGE2); assay type: cell-based; set-up: expressed in transfected cells; host or cells: CHO-K1 cells, pCIN vector; settings: free bases or sodium salts; averages of a number of experiments; read-out: functional pKi value, human EP1 calcium mobilisation assay (converted)
How it was run: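 CHO-K1 cells stably transfected with human EP1 cDNA, loaded with Fluo-4 AM after 24 h culture at 37° C. Compounds added first, then PGE2; antagonism read as inhibition of PGE2-induced intracellular calcium rise on FLIPR. pIC50 taken as concentration giving half-maximal inhibition, from curve fitting.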

Which results are given for `Clc1ccc(OCc2ccccc2)c(Cc2nc(-c3nc4cc5cn[nH]c5cc4[nH]3)cs2)c1` [Example 150, 6-[2-({5-Chloro-2-[(phenylmethyl)oxy]phenyl}methyl)-1,3-thiazol-4-yl]-1,5-dihydroimidazo[4,5-f]indazolehydrochloride]?
IC50 (EP1 receptors [1]): ≤ 31.6 nM; Ki (EP1 receptors [2]): < 1000 nM

Which results are given for `CN1CCN(c2ccc3[nH]c(-c4csc(Cc5cc(Cl)ccc5OCc5ccccc5)n4)nc3n2)CC1` [Example 151, 2-[2-({5-Chloro-2-[(phenylmethyl)oxy]phenyl}methyl)-1,3-thiazol-4-yl]-5-(4-methyl-1-piperazinyl)-1H-imidazo[4,5-b]pyridine hydrochloride]?
IC50 (EP1 receptors [1]): ≤ 31.6 nM; Ki (EP1 receptors [2]): < 1000 nM

How did the IC50 (EP1 receptors [1]) turn out when `CN(C)c1ccc2nc(-c3csc(Cc4cc(Cl)ccc4OCc4ccccc4)n3)[nH]c2n1` [Example 152, 2-[2-({-5-Chloro-2-[(phenylmethyl)oxy]phenyl}methyl)-1,3-thiazol-4-yl]-N,N-dimethyl-1H-imidazo[4,5-b]pyridin-5-amine hydrochloride] was run?
The IC50 was no more than 31.6 nM.

And the Ki (EP1 receptors [2])?
Its Ki is less than 1000 nM.

What does the source list for `OCCc1ccc2nc(-c3csc(Cc4cc(Cl)ccc4OCc4ccccc4)n3)[nH]c2c1` [Example 153, 2-{2-[2-({5-Chloro-2-[(phenylmethyl)oxy]phenyl}methyl)-1,3-thiazol-4-yl]-1H-benzimidazol-5-yl}ethanol]?
IC50 (EP1 receptors [1]): ≤ 31.6 nM; Ki (EP1 receptors [2]): < 1000 nM

How did the IC50 (EP1 receptors [1]) turn out when `CC(C)COc1ccc(Cl)cc1Cc1nc(-c2nc3ccc(CCO)cc3[nH]2)cs1` [Example 154, 2-{2-[2-({5-Chloro-2-[(2-methylpropyl)oxy]phenyl}methyl)-1,3-thiazol-4-yl]-1H-benzimidazol-5-yl}ethanol] was run?
Its IC50 is no more than 31.6 nM.

What about the Ki (EP1 receptors [2]) of the same compound?
The Ki was no more than 31.6 nM.

`CC(C)COc1ccc(Cl)cc1Cc1nc(-c2nc3cc(F)c(F)cc3[nH]2)cs1` [Example 155, 2-[2-({5-Chloro-2-[(2-methylpropyl)oxy]phenyl}methyl)-1,3-thiazol-4-yl]-5,6-difluoro-1H-benzimidazole] was tested. Which IC50 (EP1 receptors [1]) did it give?
Its IC50 is no more than 1000 nM.

What about the Ki (EP1 receptors [2]) of the same compound?
The Ki was less than 1000 nM.

How did the IC50 (EP1 receptors [1]) turn out when `Cc1nnc(-c2csc(Cc3cc(Cl)ccc3OCC(C)C)n2)[nH]1` [Example 158, 3-[2-({5-Chloro-2-[(2-methyl-propyl)oxy]-phenyl}methyl)-1,3-thiazol-4-yl]-5-methyl-1H-1,2,4-triazole] was run?
The IC50 was no more than 1000 nM.

What about the Ki (EP1 receptors [2]) of the same compound?
The Ki was less than 1000 nM.

Which IC50 (EP1 receptors [1]) does the source give for `Cc1nnc(-c2csc(Cc3cc(Cl)ccc3OCc3ccccc3)n2)[nH]1` [Example 159, 3-[2-({5-Chloro-2-[(phenylmethyl)oxy]phenyl}methyl)-1,3-thiazol-4-yl]-5-methyl-1H-1,2,4-triazole] here?
The IC50 was no more than 1000 nM.

What about the Ki (EP1 receptors [2]) of the same compound?
The Ki was less than 1000 nM.

For `Clc1ccc(OCc2ccccc2)c(Cc2nc(-c3cn4ccccc4n3)cs2)c1` [Example 160, 2-[2-({5-Chloro-2-[(phenylmethyl)oxy]phenyl}methyl)-1,3-thiazol-4-yl]imidazo[1,2-a]pyridine], which IC50 (EP1 receptors [1]) is on record?
The IC50 was no more than 1000 nM.

And the Ki (EP1 receptors [2])?
Its Ki is less than 1000 nM.

Which IC50 (EP1 receptors [1]) does the source give for `CC(C)COc1ccc(Cl)cc1Nc1nc(-c2nc3ccccc3[nH]2)cs1` [Example 164, 4-(1H-Benzimidazol-2-yl)-N-{5-chloro-2-[(2-methylpropyl)oxy]phenyl}-1,3-thiazol-2-aminehydrochloride] here?
Its IC50 is no more than 31.6 nM.

And the Ki (EP1 receptors [2])?
The Ki was less than 1000 nM.

Which IC50 (EP1 receptors [1]) does the source give for `CC(C)COc1ccc(Cl)cc1Nc1nc(-c2nc3ccc(N4CCN(C)CC4)cc3[nH]2)cs1` [Example 165, N-{5-Chloro-2-[(2-methylpropyl)oxy]phenyl}-4-[5-(4-methyl-1-piperazinyl)-1H-benzimidazol-2-yl]-1,3-thiazol-2-aminetrihydrochloride] here?
Its IC50 is no more than 31.6 nM.

And the Ki (EP1 receptors [2])?
Its Ki is greater than 1000 nM.

How did the IC50 (EP1 receptors [1]) turn out when `CC(C)COc1ccc(Cl)cc1Cc1nc(-c2nc3ccc(CCN(C)C)cc3[nH]2)co1` [Example 166, (2-{2-[2-({5-Chloro-2-[(2-methylpropyl)oxy]phenyl}methyl)-1,3-oxazol-4-yl]-1H-benzimidazol-5-yl}ethyl)dimethylamine hydrochloride] was run?
The IC50 was no more than 31.6 nM.

And the Ki (EP1 receptors [2])?
Its Ki is less than 1000 nM.

Which results are given for `CC(C)COc1ccc(Cl)cc1Cc1nc(-c2nc3ccc(CCN4CCN(C)CC4)cc3[nH]2)co1` [Example 167, 2-[2-({5-chloro-2-[(2-methylpropyl)oxy]phenyl}methyl)-1,3-oxazol-4-yl]-5-[2-(4-methyl-1-piperazinyl)ethyl]-1H-benzimidazolehydrochloride]?
IC50 (EP1 receptors [1]): ≤ 31.6 nM; Ki (EP1 receptors [2]): < 1000 nM

With `CC(C)COc1ccc(Cl)cc1Cc1nc(-c2nc3ccc(CCN4CCCCC4)cc3[nH]2)co1` [Example 168, 2-[2-({5-chloro-2-[(2-methylpropyl)oxy]phenyl}methyl)-1,3-oxazol-4-yl]-5-[2-(1-piperidinyl)ethyl]-1H-benzimidazolehydrochloride] as the compound, how does the IC50 (EP1 receptors [1]) read?
The IC50 was no more than 31.6 nM.

What about the Ki (EP1 receptors [2]) of the same compound?
The Ki was less than 1000 nM.

`CC(C)COc1ccc(Cl)cc1Cc1nc(-c2nc3ccc(CCN4CCCC4)cc3[nH]2)co1` [Example 169, 2-[2-({5-chloro-2-[(2-methylpropyl)oxy]phenyl}methyl)-1,3-oxazol-4-yl]-5-[2-(1-pyrrolidinyl)ethyl]-1H-benzimidazolehydrochloride] was tested. Which IC50 (EP1 receptors [1]) did it give?
Its IC50 is no more than 31.6 nM.

And the Ki (EP1 receptors [2])?
The Ki was less than 1000 nM.

What does the source list for `CN(C)Cc1ccc2nc(-c3coc(Cc4cc(Cl)ccc4OCc4ccccc4)n3)[nH]c2c1` [Example 170, ({2-[2-({5-chloro-2-[(phenylmethyl)oxy]phenyl}-methyl)-1,3-oxazol-4-yl]-1H-benzimidazol-5-yl}methyl)dimethylaminehydrochloride]?
IC50 (EP1 receptors [1]): ≤ 1000 nM; Ki (EP1 receptors [2]): < 1000 nM

Which results are given for `CN1CCN(Cc2ccc3nc(-c4coc(Cc5cc(Cl)ccc5OCc5ccccc5)n4)[nH]c3c2)CC1` [Example 171, 2-[2-({5-chloro-2-[(phenylmethyl)oxy]phenyl}-methyl)-1,3-oxazol-4-yl]-5-[(4-methyl-1-piperazinyl)methyl]-1H-benzimidazolehydrochloride]?
IC50 (EP1 receptors [1]): ≤ 1000 nM; Ki (EP1 receptors [2]): < 1000 nM

Which IC50 (EP1 receptors [1]) does the source give for `Clc1ccc(OCc2ccccc2)c(Cc2nc(-c3nc4ccc(CN5CCCCC5)cc4[nH]3)co2)c1` [Example 172, 2-[2-({5-chloro-2-[(phenylmethyl)oxy]phenyl}-methyl)-1,3-oxazol-4-yl]-5-(1-piperidinylmethyl)-1H-benzimidazolehydrochloride] here?
Its IC50 is no more than 1000 nM.

And the Ki (EP1 receptors [2])?
The Ki was less than 1000 nM.

Which IC50 (EP1 receptors [1]) does the source give for `Clc1ccc(OCc2ccccc2)c(Cc2nc(-c3nc4ccc(CN5CCCC5)cc4[nH]3)co2)c1` [Example 173, 2-[2-({5-chloro-2-[(phenylmethyl)oxy]phenyl}-methyl)-1,3-oxazol-4-yl]-5-(1-pyrrolidinylmethyl)-1H-benzimidazolehydrochloride] here?
The IC50 was no more than 1000 nM.

What about the Ki (EP1 receptors [2]) of the same compound?
The Ki was less than 1000 nM.

How did the IC50 (EP1 receptors [1]) turn out when `CNCc1ccc2nc(-c3coc(Cc4cc(Cl)ccc4OCC(C)C)n3)[nH]c2c1` [Example 174, ({2-[2-({5-Chloro-2-[(2-methylpropyl)oxy]phenyl}methyl)-1,3-oxazol-4-yl]-1H-benzimidazol-5-yl}methyl)methylaminedihydrochloride] was run?
The IC50 was no more than 31.6 nM.

What about the Ki (EP1 receptors [2]) of the same compound?
Its Ki is less than 1000 nM.

Which IC50 (EP1 receptors [1]) does the source give for `CC(C)COc1ccc(Cl)cc1Cc1nc(-c2nc3ccc(CN(C)C)cc3[nH]2)co1` [Example 175, ({2-[2-({5-Chloro-2-[(2-methylpropyl)oxy]phenyl}methyl)-1,3-oxazol-4-yl]-1H-benzimidazol-5-yl}methyl)dimethylaminedihydrochloride] here?
Its IC50 is no more than 31.6 nM.

What about the Ki (EP1 receptors [2]) of the same compound?
The Ki was less than 1000 nM.

For `CC(C)COc1ccc(Cl)cc1Cc1nc(-c2nc3ccc(CN4CCCC4)cc3[nH]2)co1` [Example 176, 2-[2-({5-chloro-2-[(2-methylpropyl)oxy]phenyl}methyl)-1,3-oxazol-4-yl]-5-(1-pyrrolidinylmethyl)-1H-benzimidazoledihydrochloride], which IC50 (EP1 receptors [1]) is on record?
Its IC50 is no more than 31.6 nM.

What about the Ki (EP1 receptors [2]) of the same compound?
Its Ki is less than 1000 nM.

Which results are given for `CC(C)COc1ccc(Cl)cc1Cc1nc(-c2nc3ccc(CN4CCCCC4)cc3[nH]2)co1` [Example 177, 2-[2-({5-chloro-2-[(2-methylpropyl)oxy]phenyl}methyl)-1,3-oxazol-4-yl]-5-(1-piperidinylmethyl)-1H-benzimidazoledihydrochloride]?
IC50 (EP1 receptors [1]): ≤ 31.6 nM; Ki (EP1 receptors [2]): < 1000 nM

Which results are given for `CC(C)COc1ccc(Cl)cc1Cc1nc(-c2nc3ccc(CN4CCN(C)CC4)cc3[nH]2)co1` [Example 178, 2-[2-({5-Chloro-2-[(2-methylpropyl)oxy]phenyl}methyl)-1,3-oxazol-4-yl]-5-[(4-methyl-1-piperazinyl)methyl]-1H-benzimidazoletrihydrochloride]?
IC50 (EP1 receptors [1]): ≤ 31.6 nM; Ki (EP1 receptors [2]): < 1000 nM

Which IC50 (EP1 receptors [1]) does the source give for `CNCc1ccc2nc(-c3csc(Nc4cc(Cl)ccc4OCC(C)C)n3)[nH]c2c1` [Example 179, N-{5-Chloro-2-[2-methylpropyl)oxy]phenyl}-4-{5-[(methylamino)methyl]-1H-benzimidazol-2-yl}-1,3-thiazol-2-amine hydrochloride] here?
The IC50 was no more than 31.6 nM.

And the Ki (EP1 receptors [2])?
Its Ki is greater than 1000 nM.

With `CC(C)COc1ccc(Cl)cc1Nc1nc(-c2nc3ccc(CN(C)C)cc3[nH]2)cs1` [Example 180, N-{5-Chloro-2-[(2-methylpropyl)oxy]phenyl}-4-{5-[(dimethylamino)methyl]-1H-benzimidazol-2-yl}-1,3-thiazol-2-aminehydrochloride] as the compound, how does the IC50 (EP1 receptors [1]) read?
The IC50 was no more than 31.6 nM.

What about the Ki (EP1 receptors [2]) of the same compound?
The Ki was greater than 1000 nM.
